Measured values reported in patent US7727736B2, “Soluble phospholipids for use in clotting factor assays” (The University of North Carolina at Chapel Hill, priority 2003, dated 2010).

Tests used:
Format in all cases: biochemical
[1] = biological target: T1, factor VIII (Homo sapiens, UniProt P00451); assay: Chromogenic FVIII assay; conditions: normal pooled plasma (100% factor VIII), varying C6PS
T1 construct: using normal pooled plasma (100% factor VIII); from tissue; host or cells: normal pooled plasma
T1 sequence (P00451 20-391 limits assumed): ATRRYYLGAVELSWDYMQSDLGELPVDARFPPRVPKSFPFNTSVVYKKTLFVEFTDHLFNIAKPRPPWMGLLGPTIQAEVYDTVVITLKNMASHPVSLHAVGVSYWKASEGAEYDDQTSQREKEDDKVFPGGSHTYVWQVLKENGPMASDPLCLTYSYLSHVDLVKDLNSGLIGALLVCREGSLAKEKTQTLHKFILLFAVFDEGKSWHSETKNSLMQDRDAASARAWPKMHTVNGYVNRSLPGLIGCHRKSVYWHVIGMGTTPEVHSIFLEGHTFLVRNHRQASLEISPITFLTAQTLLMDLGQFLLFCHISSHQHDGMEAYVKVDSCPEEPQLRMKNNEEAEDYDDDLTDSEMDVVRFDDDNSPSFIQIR
T1 sequence (P00451 392-759 limits assumed): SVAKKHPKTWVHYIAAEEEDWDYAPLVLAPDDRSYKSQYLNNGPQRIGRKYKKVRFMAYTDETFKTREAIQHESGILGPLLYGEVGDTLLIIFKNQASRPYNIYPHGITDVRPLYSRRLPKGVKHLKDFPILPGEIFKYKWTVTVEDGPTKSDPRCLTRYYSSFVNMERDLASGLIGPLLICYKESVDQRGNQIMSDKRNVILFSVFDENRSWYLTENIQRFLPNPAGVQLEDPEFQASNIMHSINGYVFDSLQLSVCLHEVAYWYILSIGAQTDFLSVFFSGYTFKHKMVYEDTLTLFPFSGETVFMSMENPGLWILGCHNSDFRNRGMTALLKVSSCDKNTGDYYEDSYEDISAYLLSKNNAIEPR
T1 sequence (P00451 1709-2351 limits assumed): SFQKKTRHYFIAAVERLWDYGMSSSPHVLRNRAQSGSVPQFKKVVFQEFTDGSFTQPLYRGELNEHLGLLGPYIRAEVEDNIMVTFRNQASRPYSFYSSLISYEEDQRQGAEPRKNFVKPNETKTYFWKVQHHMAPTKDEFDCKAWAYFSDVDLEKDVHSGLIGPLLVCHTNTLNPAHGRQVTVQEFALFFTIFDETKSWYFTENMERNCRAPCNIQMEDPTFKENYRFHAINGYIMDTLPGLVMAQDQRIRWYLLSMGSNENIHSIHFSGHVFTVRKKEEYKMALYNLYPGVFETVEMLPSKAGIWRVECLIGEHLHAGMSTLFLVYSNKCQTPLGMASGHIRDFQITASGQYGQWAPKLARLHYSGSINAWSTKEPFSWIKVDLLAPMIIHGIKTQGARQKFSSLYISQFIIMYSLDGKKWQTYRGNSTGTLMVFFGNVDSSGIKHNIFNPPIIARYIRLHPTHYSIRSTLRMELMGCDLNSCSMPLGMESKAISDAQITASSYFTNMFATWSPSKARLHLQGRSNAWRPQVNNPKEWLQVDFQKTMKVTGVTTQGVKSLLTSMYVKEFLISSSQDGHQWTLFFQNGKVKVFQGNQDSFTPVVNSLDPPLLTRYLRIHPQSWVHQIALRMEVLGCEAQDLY
T1 sequence (P00740 47-191 partner limits assumed): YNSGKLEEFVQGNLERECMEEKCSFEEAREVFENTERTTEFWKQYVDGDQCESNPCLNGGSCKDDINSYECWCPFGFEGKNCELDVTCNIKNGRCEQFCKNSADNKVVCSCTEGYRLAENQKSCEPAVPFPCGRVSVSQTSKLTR
T1 sequence (P00740 227-461 partner limits assumed): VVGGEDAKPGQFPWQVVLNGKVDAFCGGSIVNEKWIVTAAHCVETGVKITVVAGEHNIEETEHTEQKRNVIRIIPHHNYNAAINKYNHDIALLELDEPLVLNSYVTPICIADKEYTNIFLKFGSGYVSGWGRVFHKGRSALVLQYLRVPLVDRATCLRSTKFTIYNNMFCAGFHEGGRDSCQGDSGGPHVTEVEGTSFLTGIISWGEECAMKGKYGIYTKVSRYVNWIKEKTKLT
Method: For the chromogenic […], a standard curve was prepared by diluting normal pooled plasma (which had 1 U/mL […] according to the certification sheets) into […] to give levels of 100% factor VIII, 75%, 50%, 25%, and 10% along with the factor VIII deficient plasma, which has 0% factor VIII.
Two mixtures were prepared. Mixture #1 consisted of thrombin—3 nM, factor IXa—3 nM, factor X—7.2 μg/mL, calcium—12 mM in a buffer of 20 mM Tris (pH 7.9), 150 mM NaCl. Also included in Mixture #1 were either lipid vesicles (lipid unilamellar vesicles; “LUV”)—20 μM or C6PS—2,625 μM. Mixture #2 consisted of hirudin—60 nM and Pefachrome FXa—1.8 mM in a buffer of 20 mM Tris (pH 7.9), 150 mM NaCl.
Factor VIII levels were assayed by adding 25 μL plasma to 2000 μL of buffer. 50 μL of the diluted plasma, 100 μL Mixture #1, and […] were incubated at 37° C. for 3 minutes. […] Finally, 50 μL of Mixture #2 was added to diluted plasma+Mixture #1 and the reaction was monitored at 405 nm for 5 minutes. The rate is the change in absorbance between 30 seconds and 120 seconds expressed as mOD/minute. […]
The effect of varying C6PS levels was also monitored as described above using normal pooled plasma (100% factor VIII), except that the concentration of C6PS in Mixture #1 was varied by serial dilution into buffer before being added to the final Mixture #1.

[2] = biological target: T2, factor VIIIa-IXa complex (Homo sapiens, UniProt P00451+P00740); assay: Activation of factor X by factor IXa and factor VIIIa; conditions: in the presence of C6PS
T2 construct: 2.5 nM factor IXa and 10 nM factor VIIIa
T2 sequence (P00740 47-191 limits assumed): as the sequence (P00740 47-191 partner limits assumed) above
T2 sequence (P00740 227-461 limits assumed): as the sequence (P00740 227-461 partner limits assumed) above
T2 sequence (P00451 20-391 limits assumed): as the sequence (P00451 20-391 limits assumed) above
T2 sequence (P00451 392-759 limits assumed): as the sequence (P00451 392-759 limits assumed) above
T2 sequence (P00451 1709-2351 limits assumed): as the sequence (P00451 1709-2351 limits assumed) above
Method: The rate of activation of factor X by 2.5 nM factor IXa and 10 nM factor VIIIa in the presence of 600 μM C6PS was monitored at different concentrations of factor X (FIG. 13). The KM for this reaction was 66 nM, which is similar to that obtained with 30% PS/PC membranes (45 nM) (Larson et al. (1996) J. Biol. Chem. 271 3869).

[3] = biological target: T3, prothrombinase complex (FXa-FVa) (Homo sapiens, UniProt P00742+P12259); assay: Kinetics of prothrombin and MzIIa activation by C6PS- or membrane-assembled prothrombinase
T3 construct: Human prothrombin and factor Xa; tissue Hematologic Technologies Inc. (factor Xa only); factor Xa purchased
T3 sequence (P00742 41-179 limits assumed): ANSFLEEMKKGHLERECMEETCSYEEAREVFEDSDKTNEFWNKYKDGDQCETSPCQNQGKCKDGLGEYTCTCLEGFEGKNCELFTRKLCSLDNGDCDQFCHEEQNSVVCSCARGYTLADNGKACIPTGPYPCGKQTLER
T3 sequence (P00742 235-488 limits assumed): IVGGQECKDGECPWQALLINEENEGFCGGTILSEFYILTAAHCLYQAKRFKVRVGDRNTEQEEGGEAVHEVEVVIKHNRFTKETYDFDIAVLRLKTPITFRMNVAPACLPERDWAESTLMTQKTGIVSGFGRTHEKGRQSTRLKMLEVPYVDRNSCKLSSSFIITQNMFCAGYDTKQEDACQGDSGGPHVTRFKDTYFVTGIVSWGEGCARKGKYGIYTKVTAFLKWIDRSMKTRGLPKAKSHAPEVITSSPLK
T3 sequence (P12259 29-737 limits assumed): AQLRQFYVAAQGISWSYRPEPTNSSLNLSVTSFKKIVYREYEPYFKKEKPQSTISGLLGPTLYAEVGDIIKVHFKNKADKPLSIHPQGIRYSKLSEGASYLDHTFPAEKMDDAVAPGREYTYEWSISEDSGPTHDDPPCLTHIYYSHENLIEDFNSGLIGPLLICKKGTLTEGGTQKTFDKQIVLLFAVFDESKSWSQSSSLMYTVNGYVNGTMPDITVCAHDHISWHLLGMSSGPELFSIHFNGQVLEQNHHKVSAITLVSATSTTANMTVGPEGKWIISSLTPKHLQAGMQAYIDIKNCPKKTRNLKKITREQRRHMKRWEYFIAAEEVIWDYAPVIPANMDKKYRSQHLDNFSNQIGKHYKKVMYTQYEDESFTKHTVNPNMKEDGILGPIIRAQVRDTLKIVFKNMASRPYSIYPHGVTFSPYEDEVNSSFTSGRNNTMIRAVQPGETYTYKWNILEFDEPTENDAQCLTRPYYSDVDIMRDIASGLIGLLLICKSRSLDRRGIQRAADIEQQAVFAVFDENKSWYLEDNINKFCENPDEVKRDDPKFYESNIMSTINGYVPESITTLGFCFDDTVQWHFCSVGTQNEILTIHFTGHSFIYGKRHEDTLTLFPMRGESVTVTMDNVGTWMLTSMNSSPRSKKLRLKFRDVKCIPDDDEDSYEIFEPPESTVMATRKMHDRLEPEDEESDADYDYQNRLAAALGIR
T3 sequence (P12259 1574-2224 limits assumed): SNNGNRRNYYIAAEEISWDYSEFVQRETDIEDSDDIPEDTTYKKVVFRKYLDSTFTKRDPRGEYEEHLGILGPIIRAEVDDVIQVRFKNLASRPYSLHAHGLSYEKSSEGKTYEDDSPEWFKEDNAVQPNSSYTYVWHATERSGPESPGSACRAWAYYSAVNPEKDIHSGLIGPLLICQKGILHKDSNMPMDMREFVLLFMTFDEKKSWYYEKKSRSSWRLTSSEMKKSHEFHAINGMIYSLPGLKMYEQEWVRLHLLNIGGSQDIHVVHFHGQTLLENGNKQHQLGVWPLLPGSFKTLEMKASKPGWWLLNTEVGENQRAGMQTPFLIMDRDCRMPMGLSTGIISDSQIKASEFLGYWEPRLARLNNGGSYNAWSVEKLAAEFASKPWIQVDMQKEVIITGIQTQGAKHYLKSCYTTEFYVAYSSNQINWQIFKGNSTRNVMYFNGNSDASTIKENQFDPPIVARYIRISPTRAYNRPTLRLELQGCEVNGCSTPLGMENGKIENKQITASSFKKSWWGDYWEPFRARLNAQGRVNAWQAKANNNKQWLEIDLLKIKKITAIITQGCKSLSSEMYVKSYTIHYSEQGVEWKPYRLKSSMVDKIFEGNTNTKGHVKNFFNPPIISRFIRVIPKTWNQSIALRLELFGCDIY
Method: Fluorescence Stopped-Flow Measurements. The rates of thrombin formation from either MzIIa or Pre2 (with equimolar fragment 1.2), or of thrombin plus MzIIa formation from human prothrombin, were estimated from the time-dependent fluorescence change of DAPA bound to the activation products. […] Stopped-flow measurements were performed using an SLM-Aminco Milliflow® stopped flow reactor (Spectronic Instruments, Inc., Rochester, N.Y.) attached to the SLM 48000® spectrofluorometer (Spectronic Instruments) as described (Wu, et al. (2002) supra; Weinreb, et al. (2003) supra). […] The calculation of rates from measurements of initial fluorescence intensity (F0) and intensity at the completion of the reaction (F∞) is well-established (Nesheim and Mann (1983) supra; Wu, et al. (2002) supra).
Rapid Chemical Quench Measurements. […] Prothrombin solution in 50 mM Tris, 150 mM NaCl, 5 mM Ca^2+, 0.6% PEG (to limit thrombin adsorption to micro-plates), pH 7.5, was loaded into one sample loop, and pre-assembled prothrombinase complex (factor concentrations same as in stopped flow fluorescence studies) in the same buffer was loaded into another sample loop. […]

## CCCCCC(=O)OC[C@H](COP(=O)(O)OC[C@H](N)C(=O)O)OC(=O)CCCCC [C6PS, 1,2-dicaproyl-sn-glycero-3-phospho-L-serine]
[1]
  rate in FVIII chromogenic assay versus C6PS concentration: saturated
[2]
  fold reduction of KM for factor X activation with the addition of VIIIa: 5 fold
[3]; 400 μM C6PS, FXa 1 nM, FVa2 5 nM
  fraction of prothrombin converted directly (channeled) to thrombin: 58%
[3]; C6PS with FVa2 vs membrane with FVa
  activation by C6PS-assembled complex relative to literature membrane complex: an order of magnitude faster
